Laboratory results taken from publication PMC7753999, “Molecular docking‐assisted screening reveals tannic acid as a natural protein disulphide isomerase inhibitor with antiplatelet and antithrombotic activities” (Journal of Cellular and Molecular Medicine, 2020).

Legend:
ERp57 = target: T1, ERp57 (Homo sapiens, UniProt P30101); test: Di-E-GSSG fluorescence reductase assay, recombinant enzyme […]; type: biochemical
T1 construct: gene PDIA3
T1 sequence (P30101 25-505): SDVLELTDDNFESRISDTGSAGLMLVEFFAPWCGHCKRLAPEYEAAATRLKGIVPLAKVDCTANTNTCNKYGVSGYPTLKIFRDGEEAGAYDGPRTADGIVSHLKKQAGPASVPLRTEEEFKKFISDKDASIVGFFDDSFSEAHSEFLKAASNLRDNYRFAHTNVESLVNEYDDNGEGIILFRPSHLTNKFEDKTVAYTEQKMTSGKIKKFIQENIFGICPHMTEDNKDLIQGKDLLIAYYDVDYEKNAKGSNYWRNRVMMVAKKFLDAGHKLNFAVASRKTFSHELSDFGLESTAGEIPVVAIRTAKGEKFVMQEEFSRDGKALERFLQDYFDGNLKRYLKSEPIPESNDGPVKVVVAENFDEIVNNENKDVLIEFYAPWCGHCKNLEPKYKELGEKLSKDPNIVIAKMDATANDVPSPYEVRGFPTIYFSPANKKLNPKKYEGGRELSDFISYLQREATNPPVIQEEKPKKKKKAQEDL

[1] = target: T2, Protein disulphide isomerase (PDI) (Homo sapiens, UniProt P07237); test: SPR with immobilized recombinant human PDI; also inhibits in Di-E-GSSG reductase and insulin reduction assays; type: binding
T2 construct: gene P4HB
T2 sequence (P07237 18-508): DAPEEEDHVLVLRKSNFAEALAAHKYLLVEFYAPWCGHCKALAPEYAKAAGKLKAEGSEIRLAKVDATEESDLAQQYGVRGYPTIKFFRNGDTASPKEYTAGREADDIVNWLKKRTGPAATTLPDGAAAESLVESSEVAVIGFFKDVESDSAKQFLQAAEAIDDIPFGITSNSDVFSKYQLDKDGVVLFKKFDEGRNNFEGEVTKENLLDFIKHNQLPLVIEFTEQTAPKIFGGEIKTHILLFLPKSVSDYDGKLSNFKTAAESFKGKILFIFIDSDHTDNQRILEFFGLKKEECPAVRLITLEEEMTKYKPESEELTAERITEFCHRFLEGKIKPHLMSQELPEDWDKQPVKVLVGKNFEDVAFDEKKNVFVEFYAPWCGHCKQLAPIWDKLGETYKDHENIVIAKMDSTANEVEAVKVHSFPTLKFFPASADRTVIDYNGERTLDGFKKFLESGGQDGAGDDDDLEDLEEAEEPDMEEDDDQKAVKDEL

ERp72 = target: T3, ERp72 (Homo sapiens, UniProt P13667); test: Di-E-GSSG fluorescence reductase assay, recombinant enzyme […]; type: biochemical
T3 construct: gene PDIA4
T3 sequence (P13667 21-645): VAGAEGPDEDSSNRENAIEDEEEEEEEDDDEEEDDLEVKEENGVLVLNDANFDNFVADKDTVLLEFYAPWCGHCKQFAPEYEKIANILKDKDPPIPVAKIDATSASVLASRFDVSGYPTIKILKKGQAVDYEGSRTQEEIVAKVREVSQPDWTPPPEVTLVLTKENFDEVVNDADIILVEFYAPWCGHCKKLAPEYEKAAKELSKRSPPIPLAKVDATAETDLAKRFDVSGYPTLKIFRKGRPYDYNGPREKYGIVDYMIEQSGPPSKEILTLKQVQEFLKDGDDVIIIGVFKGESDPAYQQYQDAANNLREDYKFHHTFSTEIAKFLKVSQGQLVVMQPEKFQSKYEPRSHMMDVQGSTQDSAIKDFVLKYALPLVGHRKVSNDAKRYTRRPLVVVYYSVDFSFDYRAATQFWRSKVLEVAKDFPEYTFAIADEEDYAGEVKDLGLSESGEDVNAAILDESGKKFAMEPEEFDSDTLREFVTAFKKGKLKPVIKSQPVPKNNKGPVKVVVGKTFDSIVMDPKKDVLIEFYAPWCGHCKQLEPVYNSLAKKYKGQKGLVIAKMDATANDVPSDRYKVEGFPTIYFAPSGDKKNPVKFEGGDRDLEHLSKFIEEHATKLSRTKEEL

Kd [1]: < 1.68 nM
SMILES: O=C(OC[C@H]1O[C@@H](OC(=O)c2cc(O)c(O)c(OC(=O)c3cc(O)c(O)c(O)c3)c2)[C@H](OC(=O)c2cc(O)c(O)c(OC(=O)c3cc(O)c(O)c(O)c3)c2)[C@@H](OC(=O)c2cc(O)c(O)c(OC(=O)c3cc(O)c(O)c(O)c3)c2)[C@@H]1OC(=O)c1cc(O)c(O)c(OC(=O)c2cc(O)c(O)c(O)c2)c1)c1cc(O)c(O)c(OC(=O)c2cc(O)c(O)c(O)c2)c1 [TA, Tannic acid]
Di-E-GSSG fluorescence reductase assay, recombinant enzyme 20 nmol/L (ERp57): TA impaired the reductase activity of other platelet PDI family members ERP57 and ERP72 | Di-E-GSSG fluorescence reductase assay, recombinant enzyme 20 nmol/L (ERp72): TA impaired the reductase activity of other platelet PDI family members ERP57 and ERP72
